Where “and” joins values, the source holds several entries; their conditions need not be identical. Equal values may be shown once. Read-outs that look alike come from different tables or passages of the source.
How the values were obtained:
[1] = system: P. falciparum (NF54 clone); assay: Blood stage activity against cultured P. falciparum; assay type: cell-based, Plasmodium falciparum; details: concentration up to 15 μM
[2] = Pharmacokinetics in rats after IV and PO administration; assay type: in vivo, male Sprague–Dawley rats
Protocol: Animal studies were conducted using established procedures in accordance with the Australian Code of Practice for the Care and Use of Animals for Scientific Purposes, and the study protocols were reviewed and approved by the Monash Institute of Pharmaceutical Sciences Animal Ethics Committee. The study was conducted in overnight-fasted male Sprague–Dawley rats weighing 266–292 g. Rats had access to water ad libitum throughout the pre- and postdose sampling period, and access to food was reinstated 4 h postdose. Compound 1 was administered intravenously as a 10 min constant rate infusion via an indwelling jugular vein cannula (1 mL per rat, n = 5 rats) and orally by gavage (10 mL/kg per rat, n = 2–3 rats), and samples of arterial blood and total urine were collected up to 24 h postdose. Arterial blood was collected directly into borosilicate vials (at 4 °C) containing heparin. Blood samples were centrifuged, and the supernatant plasma was removed and stored frozen (−80 °C) until analysis by LC-MS. Plasma samples and calibration standards (prepared in blank rat plasma) were processed by protein precipitation with a 2-fold volume of acetonitrile. LC-MS analysis was conducted using a Waters Micromass Quattro Premier triple-quadrupole mass spectrometer coupled to a Waters Acquity UPLC with a Phenomenex C18 Kinetex column (50 × 2.1 mm, 2.7 μm). Elution was achieved using a methanol–water gradient (containing 8.2 mM formic acid and 1.25 mM ammonium formate) with a flow rate of 0.6 mL/min, a gradient cycle time of 6 min, and an injection volume of 2 μL. MS detection was conducted using positive electrospray ionization with multiple reaction monitoring. Transitions (m/z), cone voltages (V), and CID voltages (V) were as follows: 1, 430.26 > 99.93, 40, 20; 2, 416.27 > 99.80, 30, 20; 3, 402.22 > 99.93, 35, 20; 4, 388.23 > 99.86, 35, 20; 5: 374.25 > 72.01, 35, 25; diazepam (285.25 > […], 40, 25) (used as an internal standard). The quantitation range in plasma was typically 1–10000 ng/mL, and the accuracy and precision were within ±10% and <10%, respectively, for each analyte. Urine samples were analyzed using either a 20- or 200-fold dilution with 50% acetonitrile and assayed against calibration standards prepared in the same solvent.

P. cynomolgi hypnozoites = system: P. cynomolgi hypnozoites; design: method as in PMID 4091527; details: cited from earlier work
[3] = Metabolism in rat liver microsomes; assay type: in vitro ADME; details: 1 μM substrate, NADPH
Protocol: Following the protocols described by Charman et al.,[28]1 was incubated at 37 °C with human, rat, and rhesus monkey liver microsomes. For the determination of intrinsic clearance, the substrate concentration was 1 μM and the protein concentration was 0.4 mg/mL; for qualitative metabolite identification studies, the substrate and protein concentrations were 10 μM and 1 mg/mL, respectively. The reaction was initiated by the addition of an NADPH-regenerating buffer system, and the samples were incubated for up to 60 (for Clint determination) or 180 min (for additional metabolite identification). Samples without the test compound and without NADPH were also incubated and used as controls. The reaction was quenched by protein precipitation with the addition of an equal volume of ice-cold acetonitrile solution (containing diazepam as an internal standard), followed by vortexing and centrifugation for 3 min at 10000 rpm. The supernatant was removed and analyzed by LC/MS. LC/MS analysis was conducted using a Waters Micromass Xevo G2 QTOF MS coupled to a Waters Acquity UPLC. For metabolite identification, a Supelco Ascentis Express Amide column (50 × 2.1 mm, 2.7 μm) was used with an acetonitrile–water gradient (containing 0.05% formic acid), a flow rate of 0.4 mL/min, a gradient cycle time of 6 min, and an injection volume of 5 μL. MS analysis was conducted using positive mode electrospray ionization under MSE acquisition mode, which allows simultaneous acquisition of MS spectra at low and high collision energies. The identity of putative metabolites was confirmed by the accurate mass and a comparison of the retention times and MS/MS fragmentation patterns with authentic metabolites where available. For metabolite quantitation, the method described below for the analysis of plasma samples was used.

[4] = PO, 11 mg/kg, individual values n = 2
[5] = male, Sprague-Dawley, rat, plasma, po, 27 mg/kg

## CCN(CC)CCN(CCN(CC)CC)c1cc(OC)c(OC)cc1Br [Compound 1, 4-(2-bromo-4,5-dimethoxyphenyl)-1,1,7,7-tetraethyldiethylenetriamine]
[1]
  blood stage activity: no blood stage activity
[2]; IV, 3 mg/kg, individual values
  dose excreted in urine as parent: 9.2% and 10.7%
[2]; [4]
  Cmax: 50 nM
  Tmax: 0.8 h
  plasma half-life: 6.1 h
[2]; male, Sprague-Dawley, rat, plasma, intravenous and oral, after IV and PO administration, read-out: terminal half-life
  half-life: 300 to 420 min
[2]; male, Sprague-Dawley, rat, plasma, iv, 3 mg/kg
  clearance: 147 ± 33 mL/min/kg
[2]; male, Sprague-Dawley, rat, plasma, iv, 3 mg/kg, IV, 3 mg/kg, n = 5, read-out: plasma half-life (converted)
  half-life: 420 ± 78 min
[2]; male, Sprague-Dawley, rat, plasma, iv, 3 mg/kg, read-out: plasma volume of distribution
  Vd: 51 ± 10 L/kg
[2]; male, Sprague-Dawley, rat, plasma, po, 11 mg/kg
  bioavailability: ~16%
[2]; male, Sprague-Dawley, rat, plasma, po, 11 mg/kg, PO, 11 mg/kg, individual values n = 2, read-out: Tmax
  Tmax: 1 h
[2]; male, Sprague-Dawley, rat, plasma, po, 11 mg/kg, PO, 11 mg/kg, individual values n = 2, read-out: plasma half-life (converted)
  half-life: 294 min
[2]; male, Sprague-Dawley, rat, plasma, po, 11 mg/kg, individual values n = 2
  Cmax: 70 nM
[2]; [5]
  Cmax: 310 ± 30 nM
  bioavailability: ~27%
[2]; male, Sprague-Dawley, rat, plasma, po, 27 mg/kg, PO, 27 mg/kg, n = 3, read-out: plasma half-life (converted)
  half-life: 444 ± 78 min
[2]; male, Sprague-Dawley, rat, plasma, po, 27 mg/kg, PO, 27 mg/kg, read-out: Tmax
  Tmax: 1 h
[2]; male, Sprague-Dawley, rat, plasma, po, oral administration, read-out: time of maximum plasma concentrations postdose
  Tmax: ~1 h
[2]; male, Sprague-Dawley, whole blood and plasma, 3 mg/kg, rat, IV column
  blood plasma ratio: 2.1
[2]; rat
  renal elimination as share of overall in vivo clearance: approximately 10%
P. cynomolgi hypnozoites
  efficacy against hypnozoites relative to primaquine: about 1 order of magnitude less effective than primaquine
  hemolysis: produced no hemolysis
  toxicity relative to primaquine: 1 order of magnitude less toxic
[3]; 0.4 mg/mL protein, relative to initial substrate concentration
  average substrate depletion over a 60 min incubation: ~90%
[3]; rat, liver microsomes, 0.4 mg/mL microsomal protein, 37 °C, 60 min, average of three replicates, read-out: CLint
  microsomal CLint at 1 μM: 100 ± 2.6 µL/min/mg
